Several values for one entry are separate records, joined by “and”; a condition that tells them apart may be missing. Identical values can stand only once.
How the values were obtained:
EGFR (human) [1] = biological target: EGFR (human) (UniProt P00533); settings: a431
EGFR (human) [2] = biological target: EGFR (human) (UniProt P00533); settings: igrov-1
EGFR (human) [3] = biological target: EGFR (human) (UniProt P00533); settings: skov-3
EGFR (mouse) = EGFR (mouse) (UniProt P00533); settings: nih3t3
EGFR (human) [4] = biological target: EGFR (human) (UniProt P00533); settings: a431; remark: listed apart in the source
EGFR = EGFR (UniProt P00533)
Sequence of EGFR (P00533 whole entry, looked up): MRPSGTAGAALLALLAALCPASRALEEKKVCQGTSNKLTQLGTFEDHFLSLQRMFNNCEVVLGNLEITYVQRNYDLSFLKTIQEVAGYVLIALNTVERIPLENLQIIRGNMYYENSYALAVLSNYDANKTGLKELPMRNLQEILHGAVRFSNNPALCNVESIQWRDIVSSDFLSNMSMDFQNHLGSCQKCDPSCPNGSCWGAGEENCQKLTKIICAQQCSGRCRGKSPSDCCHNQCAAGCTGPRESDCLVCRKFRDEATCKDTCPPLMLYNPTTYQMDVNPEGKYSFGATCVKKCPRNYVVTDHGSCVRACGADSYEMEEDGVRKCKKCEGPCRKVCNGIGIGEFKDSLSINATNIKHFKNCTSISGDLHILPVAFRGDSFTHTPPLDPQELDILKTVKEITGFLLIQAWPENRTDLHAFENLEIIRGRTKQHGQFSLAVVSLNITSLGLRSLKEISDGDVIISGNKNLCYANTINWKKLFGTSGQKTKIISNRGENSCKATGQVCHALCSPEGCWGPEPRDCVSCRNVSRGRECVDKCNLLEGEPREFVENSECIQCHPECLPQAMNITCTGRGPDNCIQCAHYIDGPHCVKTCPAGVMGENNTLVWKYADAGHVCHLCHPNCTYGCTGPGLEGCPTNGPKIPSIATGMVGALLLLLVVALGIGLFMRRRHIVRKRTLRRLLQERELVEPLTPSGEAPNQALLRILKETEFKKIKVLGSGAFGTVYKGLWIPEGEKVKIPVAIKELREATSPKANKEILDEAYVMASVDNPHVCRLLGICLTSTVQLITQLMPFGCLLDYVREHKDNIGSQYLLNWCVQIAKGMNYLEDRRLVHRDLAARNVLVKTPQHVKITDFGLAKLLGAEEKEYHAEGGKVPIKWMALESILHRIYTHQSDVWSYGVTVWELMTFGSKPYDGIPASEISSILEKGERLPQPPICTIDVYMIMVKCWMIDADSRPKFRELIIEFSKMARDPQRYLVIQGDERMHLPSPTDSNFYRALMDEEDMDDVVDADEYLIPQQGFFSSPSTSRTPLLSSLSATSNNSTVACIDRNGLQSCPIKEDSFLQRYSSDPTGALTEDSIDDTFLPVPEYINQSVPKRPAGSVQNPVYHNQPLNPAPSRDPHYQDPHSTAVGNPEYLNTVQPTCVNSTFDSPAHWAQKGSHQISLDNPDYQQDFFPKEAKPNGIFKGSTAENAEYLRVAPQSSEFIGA

Sequence of EGFR (human) (P00533 whole entry, looked up): as above

IC50 (EGFR (human) [1]) [µM]	IC50 (EGFR (human) [2]) [µM]	IC50 (EGFR (human) [3]) [µM]	IC50 (EGFR (mouse)) [µM]	IC50 (EGFR (human) [4])	IC50 (EGFR) [µM]	SMILES
15.8	22.4	41.2	8.3	22 µM and 100 µM		CC(=O)Oc1ccc(OC(C)=O)c2c1CC(C)=CCC[C@]13O[C@H]1[C@H]2OC3=O
3.6	6.1	21.9		100 µM and > 100 µM	27	CC1=CCC[C@]23O[C@H]2[C@@H](OC3=O)C2=C(C1)C(=O)C=CC2=O
0.1	0.8	1	0.02		5.5	CC1=CCC[C@]23O[C@H]2[C@@H](OC3=O)C2=C(C1)C(=O)C(O)=CC2=O
					26	CC1=CCC[C@]23O[C@H]2[C@@H](OC3=O)c2c(O)ccc(O)c2C1
> 100	> 100	> 100				COc1ccc(OC)c2c1CC(C)=CCC[C@]13O[C@H]1[C@H]2OC3=O
